Active and inactive are the calls of the source. The rule behind the calls is not given here.
Legend:
SK-MEL-28 = assay: Cytotoxic activity against MEL-28 cell line; type: functional, cell-based; conditions: Homo sapiens
A549 = assay: Cytotoxic activity against A-549 cell line; type: functional, cell-based; conditions: Homo sapiens
HT-29 = assay: Cytotoxic activity against HT-29 cell line; type: functional, cell-based; conditions: Homo sapiens
P388 = assay: Cytotoxic activity against P-388 cell line; type: functional, cell-based; conditions: Mus musculus
HCT-116 = assay: Cytotoxic activity against H116 cell line; type: functional, cell-based; conditions: Homo sapiens
[1] = Compound tested for inhibition of tubulin polymerization at 60 uM; No inhibition; type: functional
[2] = Compound tested for inhibition of tubulin polymerization; type: functional

SMILES	IC50 (SK-MEL-28) [µM]	IC50 (A549) [µM]	IC50 (HT-29) [µM]	IC50 (P388) [µM]	IC50 (HCT-116) [µM]	inhibition [1]	IC50 [2] [µM]
COc1cc(/C=C\c2ccc3ccccc3n2)cc(OC)c1OC	0.316	0.316	0.316	0.316	0.316		
COc1cc(/C=C/c2ccc3nc(C)c(C)nc3c2)cc(OC)c1OC	> 15.8	> 15.8	> 15.8	> 15.8	> 15.8		
COc1cc(/C=C\c2ccnc3ccccc23)cc(OC)c1OC	7.94	7.94	15.8	7.94	7.94		
COc1ccc(/C=C\c2cc(OC)c(OC)c(OC)c2)cc1O [COMBRETASTATIN A4]					0.00316		
COc1cc(/C=C/c2ccc3ccccc3n2)cc(OC)c1OC	0.398	0.398	0.398	0.398	0.398		
COc1cc(/C=C\c2ccc3ccccc3c2)cc(OC)c1OC [NAPHTHYLCOMBRETASTATIN]					0.0158		
COc1cc(/C=C/c2ccc3nccnc3c2)cc(OC)c1OC	> 15.8	> 15.8	> 15.8	> 15.8	> 15.8		
COc1cc(/C=C/c2ccc3cccnc3c2)cc(OC)c1OC	1.58	1.58	1.58	1.58	1.58		
COc1cc(/C=C\c2cnc3ccccc3c2)cc(OC)c1OC	0.398	0.398	0.398	0.398	0.398		
COc1cc(/C=C\c2ccc3ncccc3c2)cc(OC)c1OC	0.0316	0.0316	0.0316	0.0316	0.0316		
COc1cc(/C=C\c2ccc3nc(C)c(C)nc3c2)cc(OC)c1OC	> 15.8	> 15.8	> 15.8	> 15.8	> 15.8	inactive	
COc1cc(/C=C\c2ccc3cccnc3c2)cc(OC)c1OC	0.158	0.158	0.158	0.158	0.158		20
COc1cc(/C=C/c2cnc3ccccc3c2)cc(OC)c1OC	> 3.16	> 3.16	> 3.16	> 3.16	> 3.16		
COc1cc(/C=C\c2ccc3nccnc3c2)cc(OC)c1OC	7.94	7.94	7.94	7.94	7.94	inactive	
